Values of other authors as cited in US7300792B2, “Lux expression in eukaryotic cells” (University of Tennessee Research Foundation, priority 2002, dated 2007).

Tested on: lower eukaryotes
Details: lower eukaryotes (yeast)

In the case of `CCCCCCCCCC=O` [n-decylaldehyde], the Toxicity is listed as “toxic to lower eukaryotes”.
